For series [1], the system named is Candida albicans. Kind of series: Antifungal activity against Candida albicans SC5314 incubated for 48 hrs by CLSI based liquid microdilution technique. It is filed as functional.
The subject of series [2] is Nakaseomyces glabratus. Kind of series: Antifungal activity against Candida glabrata 7804 incubated for 48 hrs by CLSI based liquid microdilution technique. It is filed as functional. For orientation: In broth dilution the organism is exposed to a series of concentrations in liquid medium.
Series [3] relates to Cryptococcus neoformans. Kind of series: Antifungal activity against Cryptococcus neoformans H99 incubated for 72 hrs by CLSI based liquid microdilution technique. The format is functional.
In series [4] the test system is Pichia kudriavzevii. Kind of series: Antifungal activity against Candida krusei 10153 incubated for 48 hrs by CLSI based liquid microdilution technique. The format is functional.
Series [5] concerns Candida albicans. In words: Synergistic antifungal activity against Candida albicans SC5314 incubated for 48 hrs in presence of FLC by CLSI based liquid microdilution technique. The format is functional.
Series [6] deals with Cryptococcus neoformans. In words: Synergistic antifungal against Cryptococcus neoformans H99 incubated for 72 hrs in presence of FLC by CLSI based liquid microdilution technique. It is filed as functional.
For series [7], the system named is Nakaseomyces glabratus. In words: Synergistic antifungal activity against Candida glabrata 7804 incubated for 48 hrs in presence of FLC by CLSI based liquid microdilution technique. It is filed as functional.
Series [8] has as its system Pichia kudriavzevii. Kind of series: Synergistic antifungal activity against Candida krusei 10153 incubated for 48 hrs in presence of FLC by CLSI based liquid microdilution technique. It is filed as functional.
A short description of series [9]: Cytotoxicity against HUVEC cells measured after 72 hrs by CCK8 assay. It is filed as toxicity, cell-based. Particulars: human. (In general: Tetrazolium dyes change colour on reduction, which living cells bring about.)
The nature of series [10]: Cytotoxicity against human L02 cells measured after 72 hrs by CCK8 assay. It is filed as toxicity, cell-based.
Series [11] addresses Lanosterol 14-alpha demethylase (Candida albicans (strain SC5314 / ATCC MYA-2876) (Yeast), UniProt P10613). In words: Inhibition of CYP51 in Candida albicans SC5314 assessed as decrease in ergosterol level at 4 ug/ml measured after 48 hrs by GC-MS analysis. Particulars: at 4 µg/mL.
Series [12] has as its target Heat shock protein 90 homolog (Candida albicans (strain SC5314 / ATCC MYA-2876) (Yeast), UniProt P46598). In words: Inhibition of HSP90 extracted from Candida albicans SC5314 lysate using FITC-Geldanamycin as substrate incubated for 6 hrs by fluorescence polarization assay. The format is subcellular. Background: Fluorescence polarisation rises when a labelled molecule tumbles more slowly, as on binding a larger partner.

Series [13] has as its target Heat shock protein HSP90 (Homo sapiens, UniProt P07900+P08238). In words: Inhibition of human HSP90 using FITC-Geldanamycin as substrate incubated for 6 hrs by fluorescence polarization assay. It is filed as protein assay.
Series [14] has as its system Candida albicans. In words: Inhibition of biofilm formation in Candida albicans SC5314 at 4 ug/ml incubated for 24 hrs by XTT reduction method relative to control. It is filed as functional. Particulars: dose 4.0 µg/ml.
For series [15], the system named is Candida albicans. In words: Antifungal activity against Candida albicans SC5314 infected in immunosuppressed ICR mouse assessed as reduction in fungal burden in kidney at 10 mg/kg, ip treated for 5 days consecutively. The format is functional, organism-based. Particulars: time 5.0 day.
Series [16] deals with Candida albicans. Kind of series: Synergistic antifungal activity against Candida albicans SC5314 infected in immunosuppressed ICR mouse assessed as reduction in fungal burden in kidney at 10 mg/kg, ip treated for 5 days consecutively in presence of FLC. It is filed as functional, organism-based. The following applies: time 5.0 day.

Four compounds from ChEMBL document CHEMBL6096686, “Lanosterol 14α-Demethylase (CYP51)/Heat Shock Protein 90 (Hsp90) Dual Inhibitors for the Treatment of Invasive Candidiasis” (J Med Chem, 2025) can be followed below.

Values after ≈ are worked out from the molar mass of the structure shown. Active and inactive are the calls of the source. No cut-off for these calls is given here.

Chain of Lanosterol 14-alpha demethylase (P10613 whole entry): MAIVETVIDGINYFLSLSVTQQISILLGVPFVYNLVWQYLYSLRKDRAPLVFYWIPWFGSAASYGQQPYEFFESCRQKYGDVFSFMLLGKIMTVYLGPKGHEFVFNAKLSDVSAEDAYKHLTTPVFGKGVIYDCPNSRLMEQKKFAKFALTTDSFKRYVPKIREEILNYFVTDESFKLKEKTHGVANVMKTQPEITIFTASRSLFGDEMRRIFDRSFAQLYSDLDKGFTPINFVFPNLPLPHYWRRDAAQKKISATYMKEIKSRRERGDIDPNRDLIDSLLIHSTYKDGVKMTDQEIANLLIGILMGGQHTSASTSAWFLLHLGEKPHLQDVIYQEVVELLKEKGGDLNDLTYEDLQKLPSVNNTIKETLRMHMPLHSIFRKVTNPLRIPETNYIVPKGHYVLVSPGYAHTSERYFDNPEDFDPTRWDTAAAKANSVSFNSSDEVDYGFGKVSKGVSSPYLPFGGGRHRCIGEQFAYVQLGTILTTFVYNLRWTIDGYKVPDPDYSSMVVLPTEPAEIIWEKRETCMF
Chain of Heat shock protein 90 homolog (P46598 whole entry): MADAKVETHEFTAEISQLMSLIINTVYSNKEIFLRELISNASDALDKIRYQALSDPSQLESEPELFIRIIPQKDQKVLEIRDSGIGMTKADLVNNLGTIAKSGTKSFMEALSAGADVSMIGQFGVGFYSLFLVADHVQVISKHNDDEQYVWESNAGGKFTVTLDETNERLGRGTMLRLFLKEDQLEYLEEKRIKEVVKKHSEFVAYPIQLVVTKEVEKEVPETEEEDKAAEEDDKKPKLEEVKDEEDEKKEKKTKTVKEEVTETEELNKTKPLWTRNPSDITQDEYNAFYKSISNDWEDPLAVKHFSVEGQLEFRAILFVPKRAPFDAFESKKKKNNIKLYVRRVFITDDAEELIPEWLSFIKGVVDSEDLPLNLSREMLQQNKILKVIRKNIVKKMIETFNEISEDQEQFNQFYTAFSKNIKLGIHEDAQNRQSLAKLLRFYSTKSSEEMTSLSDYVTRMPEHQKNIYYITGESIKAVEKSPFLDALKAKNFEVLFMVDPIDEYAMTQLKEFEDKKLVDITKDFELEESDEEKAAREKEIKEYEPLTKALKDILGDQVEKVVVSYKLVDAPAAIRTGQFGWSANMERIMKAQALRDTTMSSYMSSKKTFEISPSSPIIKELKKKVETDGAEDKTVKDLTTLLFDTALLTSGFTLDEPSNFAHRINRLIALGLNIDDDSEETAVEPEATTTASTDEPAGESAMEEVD

What is called MIC80 is an inhibitory concentration at the 80% level, which refers to growth in some studies and to a panel of isolates in others. Broadly, the IC50 is the concentration needed to halve the response being measured. High values mean weaker potency, low ones greater potency. In the case of `CCNC(=O)c1noc(-c2cc(-c3ccc(C)cc3)c(O)cc2O)c1-c1ccc(CN2CCOCC2)cc1`, the MIC80 was 32 µg/mL (≈ 62.3 µM) in series [1], > 64 µg/mL in [2], 32 µg/mL (≈ 62.3 µM) in series [3] and > 64 µg/mL in series [4]. Besides, the “fractional inhibitory concentration index (FICI)” value in series [5] worked out at 0.13; in series [6] it was 0.31; in series [7], 0.5; in series [8] it was 2. The IC50 at 72 h in [9] and in series [10] was 680 nM in each case. The “inhibition (INH)” value in [11] was “Not_active”. Besides, the IC50 is 390 nM in series [12] and 1.54 µM in [13]. Besides, the inhibition result in series [14] was “Active; Exhibited Little Inhibitory Effect”. In addition, the outcome in series [15] was inactive. Besides, in [16], the outcome was Active.
In the case of `CCN(C(=O)c1cc(-c2ccc(C)cc2)c(OCc2ccccc2)cc1OCc1ccccc1)c1ccc(CN2CCN(CC(O)(Cn3cncn3)c3ccc(F)cc3F)CC2)cc1` (stereo not drawn), the MIC80 in [1] was > 64 µg/mL; in series [2], 16 µg/mL (≈ 18.5 µM); in [3] it was > 64 µg/mL; in series [4], > 64 µg/mL.
`CCN(C(=O)c1cc(-c2ccc(C)cc2)c(O)cc1O)c1ccc(CN2CCN(C(=O)CCCOc3ccc(CN(C)CC(O)(Cn4cncn4)c4ccc(F)cc4F)cc3)CC2)cc1` (stereo not drawn): the MIC80 came out at 8 µg/mL (≈ 9.01 µM) in series [1], 16 µg/mL (≈ 18 µM) in [2], 4 µg/mL (≈ 4.5 µM) in series [3] and 16 µg/mL (≈ 18 µM) in series [4].
Turning to `CCN(C(=O)c1cc(-c2ccc(C)cc2)c(O)cc1O)c1ccc(CN2CCN(C(=O)CCCCCOc3ccc(CN(C)CC(O)(Cn4cncn4)c4ccc(F)cc4F)cc3)CC2)cc1` (stereo not drawn), the MIC80 came to 8 µg/mL (≈ 8.73 µM) in series [1], 16 µg/mL (≈ 17.5 µM) in [2], 8 µg/mL (≈ 8.73 µM) in [3] and 32 µg/mL (≈ 34.9 µM) in [4].
